Measurements taken from patent US8187823B2, “Modulation of neuroglia-derived BDNF in the treatment and prevention of pain” (Université Laval, priority 2004, dated 2012).

Legend:
[1] = tested on: cultured microglia; assay: ELISA of BDNF protein in supernatant of cultured microglia; type: cell-based, rat; conditions: ATP stimulation; TNP-ATP 10 μM; supernatant 5 hours after treatment
Procedure: Microglial cultures. Rat primary cultured microglia were prepared under standard conditions as described^2,21. In brief, mixed glial culture was prepared from neonatal Wistar rats and maintained for 10-16 days in DMEM medium with 10% fetal bovine serum. Microglia were separated from the primary culture by gentle shaking of the flask and replated on plastic dishes. The cells were removed from the dish surface using a cell scraper and collected in 100 μl of PBS; subsequently, the cell density of microglia was measured using a cell counter and the volume of PBS adjusted to give a final density of 1000 cells/10 μl. This method produces microglial cultures of >95% purity. For ATP-stimulation, the purified microglia were incubated with ATP (50 μM) for 1 hour. […]

[2] = tested on: LI neurons; assay: Eanion of LI neurons in spinal slices from PNI rats with bath-applied agents; type: cell-based, rat; conditions: TNP-ATP 1 μM bath-applied, slices from allodynic rats two weeks after PNI
Procedure: (§1) Peripheral nerve injury was induced by surgically implanting a polyethylene cuff (2 mm in length, inner diameter 0.7 mm) around the sciatic nerve of adult male Sprague-Dawley rats^3,17. For sham surgery, which was used as a control, animals had all surgical procedures exempt that the cuff was not implanted. The 50% withdrawal threshold, or 50% paw withdrawal threshold, to mechanical stimulation was assessed^3,18. […] In animals with peripheral nerve injury induced in this model, there was microglial activation in the spinal cord ipsilateral to the nerve cuff, as indicated by increased labeling for the microglial activation marker OX-42 (FIGS. 5B and 5C).
(§2) Slice preparation. Parasagittal slices (300-350 μm) of spinal cord were prepared from adult (>50 days old) male rats as previously described^31. Slices were continually superfused (2-3 ml min^−1) with artificial cerebrospinal fluid (ACSF) containing (in mM): 126 NaCl, 26 NaHCO3, 10 glucose, 2.5 KCl, 2 CaCl2, 2 MgCl2, 1.25 NaH2PO4 (bubbled with 95% O2/5% CO2, pH ˜7.4).
Recordings. For perforated-patch recordings, the pipette tip was filled with a solution containing (in mM): 130 potassium methyl sulphate (KMeSO4), 5 CsCl, 2 MgCl2, 11 BAPTA, 1 CaCl2, 4 ATP, 0.4 GTP, 10 HEPES (˜pH 7.4). […]

[3] = tested on: rats with peripheral nerve injury; conditions: literature (ref. 2), acting on P2X receptors in microglia; cited from earlier work
[4] = tested on: LI neurons; assay: Eanion of LI neurons in spinal slices from naïve rats with bath-applied BDNF; type: cell-based, rat; conditions: BDNF 50 ng/ml, >90 min
Procedure: as §2
Recordings. For perforated-patch recordings, the pipette tip was filled with a solution containing (in mM): 130 potassium methyl sulphate (KMeSO4), 5 CsCl, 2 MgCl2, 11 BAPTA, 1 CaCl2, 4 ATP, 0.4 GTP, 10 HEPES (˜pH 7.4). The pipette was back-filled with this same solution supplemented with 25 μg ml^−1 gramicidin D [gramicidin stock was at 10 mg ml^−1 in dimethylsulphoxide (DMSO)]. Recordings in this mode were selected when access resistance was stable between 25-45 MΩ. For whole-cell voltage-clamp recordings, pipettes were filled with the above solution lacking gramicidin D. GABA was applied locally for 10-50 ms by pressure ejection through a micro-pipette. Data acquisition and analysis of PSCs were performed as previously described^19; membrane potential measurements were corrected as previously described^20. […] All measurements are given as means±SEM, except where indicated. […]

[5] = tested on: naïve rats; assay: Paw withdrawal threshold (WD50) after intrathecal delivery to naïve rats; type: in vivo, rat; conditions: for paw withdrawal threshold (WD50): intrathecal delivery to naïve/intact rats
Procedure: as §1
Microglial cultures. Rat primary cultured microglia were prepared under standard conditions as described^2,21. In brief, mixed glial culture was prepared from neonatal Wistar rats and maintained for 10-16 days in DMEM medium with 10% fetal bovine serum. Microglia were separated from the primary culture by gentle shaking of the flask and replated on plastic dishes. The cells were removed from the dish surface using a cell scraper and collected in 100 μl of PBS; subsequently, the cell density of microglia was measured using a cell counter and the volume of PBS adjusted to give a final density of 1000 cells/10 μl. This method produces microglial cultures of >95% purity. For ATP-stimulation, the purified microglia were incubated with ATP (50 μM) for 1 hour.
Intrathecal injections and ELISA. At least three days before drug administration, rats were anaesthetized with sodium pentobarbital (65 mg kg^−1), and a lumbar spinal catheter (PE-10 polyethylene tube) was inserted into the intrathecal space^22. On recovery from surgery, lower-body paralysis was induced through intrathecal lidocaine (2%, 30 μl) injection to confirm proper catheter localization. […] At the doses used, none of the compounds produced motor disturbances or sedation, as assessed by grasping, righting and placing reflexes and behavioural observations^23. […]

Nc1ncnc2c1ncn2[C@@H]1O[C@H](COP(=O)(O)OP(=O)(O)OP(=O)(O)O)[C@@H](O)[C@H]1O [ATP]
release of BDNF from microglia in culture [1]: caused release of BDNF

TNP-ATP
release of BDNF from microglia in culture [1]: blocked
Eanion of LI neurons [2]: −59.3±1.8 mV
nerve injury-induced tactile allodynia [3]: reverse nerve injury-induced tactile allodynia

B1: BDNF: brain-derived neurotrophic factor; recombinant human BDNF delivered intrathecally or bath-applied (protein, listed as Homo sapiens)
chain: MTILFLTMVISYFGCMKAAPMKEANIRGQGGLAYPGVRTHGTLESVNGPKAGSRGLTSLADTFEHVIEELLDEDQKVRPNEENNKDADLYTSRVMLSSQVPLEPPLLFLLEEYKNYLDAANMSMRVRRHSDPARRGELSVCDSISEWVTAADKKTAVDMSGGTVTVLEKVPVSKGQLKQYFYETKCNPMGYTKEGCRGIDKRHWNSQCRTTQSYVRALTMDSKKRIGWRFIRIDTSCVCTLTIKRGR
Eanion of LI neurons vs control untreated slices [4]: significantly less negative
paw withdrawal threshold (WD50) [5]: decrease in paw withdrawal threshold
paw withdrawal threshold (WD50) ([5]; listed as recombinant human BDNF): significant and transient decrease in the WD50
time to significant decrease in WD50 ([5]; recombinant human BDNF 20 μg intrathecal, intact rats): ≤ 1 h
